How the values were obtained:
[1] = Antioxidant effect by the TEAC III method; assay type: biochemical; conditions: in comparison with Trolox and ascorbic acid
Protocol: The relative antioxidant effect of […] extract was determined by the TEAC III method in comparison with Trolox and ascorbic acid: The TEAC III method and other methods are described in Böhm V. (2000) Ernährungsumschau 47, pages 372-375.

[2] = tested on: phytohaemagglutinin-stimulated mononuclear cells from peripheral blood; experiment: Inhibition of proliferation of stimulated mononuclear cells by individual flavonoids (3H-thymidine incorporation); assay type: cell-based, human; conditions: luteolin, luteolin-7-glucoside, apigenin at 64-2 μg/ml; 1 μg/ml phytohaemagglutinin; 24 h + 18 h 3H-thymidine; FIG. 3b
Protocol: For this purpose, mononuclear cells from the peripheral blood of a health donor were isolated via Ficoll density gradients and incubated in RPMI medium with 5% foetal calf serum in microtitre plates. The cells were incubated in triplicates with the flavonoids luteolin, luteolin-7-glucoside and apigenin. The pure substances were dissolved in 70% ethanol and further diluted in medium. The final concentrations were 64, 32, 16, 8, 4, 2 and 0 μg/ml. After addition of the flavonoids, the cells were stimulated with 1 μg/ml of phytohaemagglutinin and incubated for 24 h in an incubator at 37° C. After addition of 1 μCurie of radioactive ^3H-thymidine, the cells were incubated for a further 18 h, and the incorporated radioactivity was then measured in a scintillation counter (Canberra-Packard).

[3] = tested on: activated mononuclear cells (lymphocytes); experiment: Induction of apoptosis in activated mononuclear cells (cell death detection ELISA); assay type: cell-based; conditions: individual flavonoids contained in the extracts; FIG. 5b
Protocol: After addition of the additives, the cells were stimulated with 1 μg/ml of phytohaemagglutinin and incubated for 48 h in an incubator. The apoptosis induction was then determined by measuring the oligonucleosomes (low molecular weight DNA fragments) formed in the cells (cell death detection ELISA). […] The apoptosis induction could be blocked by a caspase inhibitor, i.e. is caspase-induced (FIG. 5a).

| SMILES | relative antioxidant effect [1] | proliferation-inhibiting effect among individual flavonoids [2] | apoptosis-inducing activity among individual flavonoids [3] |
| --- | --- | --- | --- |
| O=C1O[C@H]([C@@H](O)CO)C(O)=C1O [Ascorbic acid] | 1.1 | – | – |
| Cc1c(C)c2c(c(C)c1O)CCC(C)(C(=O)O)O2 (stereo not shown) [Trolox] | 1.0 | – | – |
| O=c1cc(-c2ccc(O)c(O)c2)oc2cc(O)cc(O)c12 [luteolin] | – | strongest proliferation-inhibiting effect | strongest apoptosis-inducing activity |

Reference: patent US20060078630A1, “Method for the production of flavonoid-containing compositions and use thereof” (priority 2003, published 2006)
